Results: the NIST ThermoML archive (doi:10.1016/j.fluid.2016.05.030)
± gives the expanded uncertainty stated by the source.

Columns and labels:
[1] = 101.33 kPa, Liquid; for viscosity: Concentric cylinders viscometry; for mass density: Vibrating tube method
[2] = molar heat capacity at constant pressure; conditions: 298.15 K; 101.33 kPa; Liquid; Drop calorimetry

Compound | viscosity ([1]; 293.15 K) | mass density ([1]; 293.15 K) | viscosity ([1]; 298.15 K) | mass density ([1]; 298.15 K) | viscosity ([1]; 303.15 K) | mass density ([1]; 303.15 K) | viscosity ([1]; 308.15 K) | mass density ([1]; 308.15 K) | viscosity ([1]; 313.15 K) | mass density ([1]; 313.15 K) | viscosity ([1]; 318.15 K) | mass density ([1]; 318.15 K) | viscosity ([1]; 323.15 K) | mass density ([1]; 323.15 K) | viscosity ([1]; 328.15 K) | mass density ([1]; 328.15 K) | viscosity ([1]; 333.15 K) | mass density ([1]; 333.15 K) | viscosity ([1]; 338.15 K) | molar heat capacity at constant pressure [2] | other results
CCCc1cccc[n+]1CC.O=S(=O)([N-]S(=O)(=O)C(F)(F)F)C(F)(F)F | 139.89 ± 2.1 mPa·s | 1452 ± 1.2 kg/m3 | 105.02 ± 1.2 mPa·s | 1447.2 ± 1.2 kg/m3 | 81.09 ± 0.69 mPa·s | 1442.5 ± 1.2 kg/m3 | 63.9 ± 0.4 mPa·s | 1437.8 ± 1.1 kg/m3 | 51.37 ± 0.27 mPa·s | 1433.1 ± 1.1 kg/m3 | 41.8 ± 0.26 mPa·s | 1428.4 ± 1.1 kg/m3 | 34.57 ± 0.21 mPa·s | 1423.8 ± 1.1 kg/m3 | 28.96 ± 0.18 mPa·s | 1419.2 ± 1.1 kg/m3 | 24.59 ± 0.15 mPa·s | 1414.6 ± 1.1 kg/m3 | 21 ± 0.13 mPa·s | 593.9 ± 14 J/K/mol | mass density ([1]; 338.15 K): 1410 ± 1.1 kg/m3; viscosity ([1]; 343.15 K): 18.15 ± 0.11 mPa·s; mass density ([1]; 343.15 K): 1405.4 ± 1.1 kg/m3; viscosity ([1]; 348.15 K): 15.82 ± 0.097 mPa·s; mass density ([1]; 348.15 K): 1400.9 ± 1.1 kg/m3; viscosity ([1]; 353.15 K): 13.94 ± 0.085 mPa·s; mass density ([1]; 353.15 K): 1396.4 ± 1.1 kg/m3; viscosity ([1]; 358.15 K): 12.3 ± 0.075 mPa·s; mass density ([1]; 358.15 K): 1391.9 ± 1.1 kg/m3; viscosity ([1]; 363.15 K): 10.95 ± 0.067 mPa·s; mass density ([1]; 363.15 K): 1387.5 ± 1.1 kg/m3
CCCCCc1cccc[n+]1CC.O=S(=O)([N-]S(=O)(=O)C(F)(F)F)C(F)(F)F | 144.37 ± 2.2 mPa·s | 1375.6 ± 1.1 kg/m3 | 108.78 ± 1.3 mPa·s | 1371.1 ± 1.1 kg/m3 | 83.99 ± 0.75 mPa·s | 1366.6 ± 1.1 kg/m3 | 66.14 ± 0.43 mPa·s | 1362.2 ± 1.1 kg/m3 | 53 ± 0.28 mPa·s | 1357.8 ± 1.1 kg/m3 | 43.06 ± 0.27 mPa·s | 1353.4 ± 1.1 kg/m3 | 35.52 ± 0.22 mPa·s | 1349 ± 1.1 kg/m3 | 29.65 ± 0.18 mPa·s | 1344.6 ± 1.1 kg/m3 | 25.11 ± 0.15 mPa·s | 1340.2 ± 1.1 kg/m3 | 21.4 ± 0.13 mPa·s | 652.7 ± 15 J/K/mol | mass density ([1]; 338.15 K): 1335.8 ± 1.1 kg/m3; viscosity ([1]; 343.15 K): 18.44 ± 0.11 mPa·s; mass density ([1]; 343.15 K): 1331.5 ± 1.1 kg/m3; viscosity ([1]; 348.15 K): 16.02 ± 0.098 mPa·s; mass density ([1]; 348.15 K): 1327.1 ± 1.1 kg/m3; viscosity ([1]; 353.15 K): 14.06 ± 0.086 mPa·s; mass density ([1]; 353.15 K): 1322.8 ± 1.1 kg/m3; viscosity ([1]; 358.15 K): 12.36 ± 0.076 mPa·s; mass density ([1]; 358.15 K): 1318.6 ± 1.1 kg/m3; viscosity ([1]; 363.15 K): 10.97 ± 0.068 mPa·s; mass density ([1]; 363.15 K): 1314.3 ± 1.1 kg/m3
CCCCCCCCCc1cccc[n+]1CC.O=S(=O)([N-]S(=O)(=O)C(F)(F)F)C(F)(F)F |  |  |  |  |  |  |  |  |  |  |  |  |  |  |  |  |  |  |  | 778.5 ± 18 J/K/mol | 
CCCCCCCCCCc1cccc[n+]1CC.O=S(=O)([N-]S(=O)(=O)C(F)(F)F)C(F)(F)F |  |  |  |  |  |  |  |  |  |  |  |  |  |  |  |  |  |  |  | 811.2 ± 19 J/K/mol | 
CCCCc1cccc[n+]1CC.O=S(=O)([N-]S(=O)(=O)C(F)(F)F)C(F)(F)F | 146.84 ± 2.3 mPa·s | 1413.7 ± 1.1 kg/m3 | 109.82 ± 1.3 mPa·s | 1409.1 ± 1.1 kg/m3 | 84.49 ± 0.76 mPa·s | 1404.5 ± 1.1 kg/m3 | 66.34 ± 0.44 mPa·s | 1400 ± 1.1 kg/m3 | 53.17 ± 0.28 mPa·s | 1395.4 ± 1.1 kg/m3 | 43.11 ± 0.27 mPa·s | 1390.9 ± 1.1 kg/m3 | 35.55 ± 0.22 mPa·s | 1386.4 ± 1.1 kg/m3 | 29.7 ± 0.18 mPa·s | 1381.9 ± 1.1 kg/m3 | 25.14 ± 0.15 mPa·s | 1377.4 ± 1.1 kg/m3 | 21.42 ± 0.13 mPa·s | 623.6 ± 14 J/K/mol | mass density ([1]; 338.15 K): 1373 ± 1.1 kg/m3; viscosity ([1]; 343.15 K): 18.45 ± 0.11 mPa·s; mass density ([1]; 343.15 K): 1368.5 ± 1.1 kg/m3; viscosity ([1]; 348.15 K): 16.04 ± 0.098 mPa·s; mass density ([1]; 348.15 K): 1364.1 ± 1.1 kg/m3; viscosity ([1]; 353.15 K): 14.09 ± 0.086 mPa·s; mass density ([1]; 353.15 K): 1359.7 ± 1.1 kg/m3; viscosity ([1]; 358.15 K): 12.39 ± 0.076 mPa·s; mass density ([1]; 358.15 K): 1355.4 ± 1.1 kg/m3; viscosity ([1]; 363.15 K): 11 ± 0.068 mPa·s; mass density ([1]; 363.15 K): 1351 ± 1.1 kg/m3
CCc1cccc[n+]1CC.O=S(=O)([N-]S(=O)(=O)C(F)(F)F)C(F)(F)F [1,2-diethylpyridin-1-ium bis((trifluoromethyl)sulfonyl)imide] | 87.87 ± 0.82 mPa·s | 1475.5 ± 1.2 kg/m3 | 68.77 ± 0.47 mPa·s | 1470.6 ± 1.2 kg/m3 | 54.95 ± 0.3 mPa·s | 1465.8 ± 1.2 kg/m3 | 44.69 ± 0.28 mPa·s | 1461.1 ± 1.2 kg/m3 | 36.91 ± 0.23 mPa·s | 1456.3 ± 1.2 kg/m3 | 30.88 ± 0.19 mPa·s | 1451.6 ± 1.2 kg/m3 | 26.16 ± 0.16 mPa·s | 1446.9 ± 1.2 kg/m3 | 22.38 ± 0.14 mPa·s | 1442.2 ± 1.2 kg/m3 | 19.4 ± 0.12 mPa·s | 1437.5 ± 1.1 kg/m3 | 16.9 ± 0.1 mPa·s | 566.1 ± 13 J/K/mol | mass density ([1]; 338.15 K): 1432.9 ± 1.1 kg/m3; viscosity ([1]; 343.15 K): 14.86 ± 0.091 mPa·s; mass density ([1]; 343.15 K): 1428.3 ± 1.1 kg/m3; viscosity ([1]; 348.15 K): 13.16 ± 0.08 mPa·s; mass density ([1]; 348.15 K): 1423.7 ± 1.1 kg/m3; viscosity ([1]; 353.15 K): 11.75 ± 0.072 mPa·s; mass density ([1]; 353.15 K): 1419.1 ± 1.1 kg/m3; viscosity ([1]; 358.15 K): 10.52 ± 0.065 mPa·s; mass density ([1]; 358.15 K): 1414.6 ± 1.1 kg/m3; viscosity ([1]; 363.15 K): 9.483 ± 0.058 mPa·s; mass density ([1]; 363.15 K): 1410 ± 1.1 kg/m3
CCCCCCc1cccc[n+]1CC.O=S(=O)([N-]S(=O)(=O)C(F)(F)F)C(F)(F)F | 159.82 ± 2.7 mPa·s | 1348.7 ± 1.1 kg/m3 | 119.41 ± 1.6 mPa·s | 1344.3 ± 1.1 kg/m3 | 91.77 ± 0.91 mPa·s | 1339.9 ± 1.1 kg/m3 | 71.93 ± 0.53 mPa·s | 1335.5 ± 1.1 kg/m3 | 57.52 ± 0.33 mPa·s | 1331.2 ± 1.1 kg/m3 | 46.51 ± 0.29 mPa·s | 1326.8 ± 1.1 kg/m3 | 38.22 ± 0.23 mPa·s | 1322.5 ± 1.1 kg/m3 | 31.83 ± 0.2 mPa·s | 1318.2 ± 1.1 kg/m3 | 26.87 ± 0.16 mPa·s | 1313.9 ± 1.1 kg/m3 | 22.8 ± 0.14 mPa·s | 685.5 ± 16 J/K/mol | mass density ([1]; 338.15 K): 1309.7 ± 1.1 kg/m3; viscosity ([1]; 343.15 K): 19.59 ± 0.12 mPa·s; mass density ([1]; 343.15 K): 1305.6 ± 1.1 kg/m3; viscosity ([1]; 348.15 K): 16.98 ± 0.1 mPa·s; mass density ([1]; 348.15 K): 1301.4 ± 1.1 kg/m3; viscosity ([1]; 353.15 K): 14.86 ± 0.091 mPa·s; mass density ([1]; 353.15 K): 1297.1 ± 1.1 kg/m3; viscosity ([1]; 358.15 K): 13.04 ± 0.08 mPa·s; mass density ([1]; 358.15 K): 1292.9 ± 1.1 kg/m3; viscosity ([1]; 363.15 K): 11.54 ± 0.071 mPa·s; mass density ([1]; 363.15 K): 1288.8 ± 1.1 kg/m3
CCCCCCCc1cccc[n+]1CC.O=S(=O)([N-]S(=O)(=O)C(F)(F)F)C(F)(F)F | 180.53 ± 3.3 mPa·s | 1325.1 ± 1.1 kg/m3 | 134.1 ± 1.9 mPa·s | 1320.8 ± 1.1 kg/m3 | 102.47 ± 1.1 mPa·s | 1316.5 ± 1.1 kg/m3 | 79.9 ± 0.67 mPa·s | 1312.2 ± 1.1 kg/m3 | 63.6 ± 0.4 mPa·s | 1307.9 ± 1.1 kg/m3 | 51.17 ± 0.27 mPa·s | 1303.6 ± 1.1 kg/m3 | 41.88 ± 0.26 mPa·s | 1299.4 ± 1.1 kg/m3 | 34.73 ± 0.21 mPa·s | 1295.2 ± 1.1 kg/m3 | 29.21 ± 0.18 mPa·s | 1290.9 ± 1.1 kg/m3 | 24.71 ± 0.15 mPa·s | 717.5 ± 17 J/K/mol | mass density ([1]; 338.15 K): 1286.7 ± 1.1 kg/m3; viscosity ([1]; 343.15 K): 21.16 ± 0.13 mPa·s; mass density ([1]; 343.15 K): 1282.5 ± 1.1 kg/m3; viscosity ([1]; 348.15 K): 18.28 ± 0.11 mPa·s; mass density ([1]; 348.15 K): 1278.3 ± 1.1 kg/m3; viscosity ([1]; 353.15 K): 15.97 ± 0.098 mPa·s; mass density ([1]; 353.15 K): 1274.2 ± 1.1 kg/m3; viscosity ([1]; 358.15 K): 13.97 ± 0.086 mPa·s; mass density ([1]; 358.15 K): 1270.1 ± 1.1 kg/m3; viscosity ([1]; 363.15 K): 12.34 ± 0.076 mPa·s; mass density ([1]; 363.15 K): 1266 ± 1.1 kg/m3
CCCCCCCCc1cccc[n+]1CC.O=S(=O)([N-]S(=O)(=O)C(F)(F)F)C(F)(F)F | 216.19 ± 4.4 mPa·s | 1301.7 ± 1.1 kg/m3 | 159.29 ± 2.6 mPa·s | 1297.4 ± 1.1 kg/m3 | 120.76 ± 1.6 mPa·s | 1293.2 ± 1.1 kg/m3 | 93.45 ± 0.94 mPa·s | 1289 ± 1.1 kg/m3 | 73.88 ± 0.56 mPa·s | 1284.8 ± 1.1 kg/m3 | 59 ± 0.34 mPa·s | 1280.6 ± 1.1 kg/m3 | 47.97 ± 0.3 mPa·s | 1276.4 ± 1.1 kg/m3 | 39.54 ± 0.24 mPa·s | 1272.3 ± 1.1 kg/m3 | 33.06 ± 0.2 mPa·s | 1268.1 ± 1.1 kg/m3 | 27.82 ± 0.17 mPa·s | 749.4 ± 17 J/K/mol | mass density ([1]; 338.15 K): 1264 ± 1.1 kg/m3; viscosity ([1]; 343.15 K): 23.71 ± 0.14 mPa·s; mass density ([1]; 343.15 K): 1259.9 ± 1.1 kg/m3; viscosity ([1]; 348.15 K): 20.39 ± 0.12 mPa·s; mass density ([1]; 348.15 K): 1255.8 ± 1.1 kg/m3; viscosity ([1]; 353.15 K): 17.72 ± 0.11 mPa·s; mass density ([1]; 353.15 K): 1251.7 ± 1.1 kg/m3; viscosity ([1]; 358.15 K): 15.44 ± 0.094 mPa·s; mass density ([1]; 358.15 K): 1247.6 ± 1.1 kg/m3; viscosity ([1]; 363.15 K): 13.58 ± 0.083 mPa·s; mass density ([1]; 363.15 K): 1243.6 ± 1.1 kg/m3
